Data set [1] can be described thus: Solubility in water, saturated suspension filtered and measured by HPLC. The class given is physicochemical. To be noted: for solubility: thermodynamic from solid; for water solubility compared with the corresponding neutral or monosalt compounds: result in words. The procedure: A compound was weighed and water was added to the compound such that the resulting concentration of the compound was about 100 mg/mL. The mixture was then shaken well and sonicated (about 5-10 min at about 50° C.). If the added amounts of the compound were totally solubilized, more amounts of the compound were added to the solution and the mixture was shaken well and sonicated until a suspension was achieved. The suspension was then filtered through a 0.2 μm filter. The filtered solution was diluted with DMSO. Then the mixture was analyzed by HPLC to determine the concentration of the compound.
The HPLC system consisted of the HP 1100 Model (Agilent, Wilmington, Del.) equipped with a model 1100 quaternary pump, a model 1100 autosampler, a model 1100 Diode-Array Detector for UV detection at 280 nm. HPLC analysis was performed using a gradient mobile phase consisting of acetonitrile-water containing 0.1% formic acid. Mobile phases were degassed and filtered through a solvent filtration apparatus and pumped at a constant rate of 1.0 mL/min. Separation was made on an XTerra MS C18 analytical column, 4.6 mm i.d.×150 mm, (Waters Corp., Milford, Mass., USA) fitted with a pre-column filter (XTerra MS C18, 3.9 mm×20 mm). The column was maintained at 40° C.

Data set [2] is described as follows: Pharmacokinetics study in dog, bioavailability AUCpo/AUCiv. The class given is in vivo. As for the experimental part:
Male beagle dogs were acclimated for at least one week prior to use, were fed laboratory chow and water ad libitum, and were housed in temperature and humidity controlled rooms. Compounds were prepared as a solution for intravenous injection or a capsule for oral administration. Three dogs were used for the study. Compounds were injected intravenously via cephalic vein or by oral gavage. The dose was adjusted based on the animal's body weight. Blood samples were collected at intervals of 5, 10 and 30 min and 1, 2, 4, 6, 8 and 24 hr (example) after administration of the compound and plasma samples were prepared after centrifugation (5000 rpm, 8 min) of whole blood samples. Compound in plasma was measured by a liquid chromatography with tandem mass spectrophotometer (LC/MS/MS) after 50 μl of these samples were extracted by protein precipitation with acetonitrile. The compound concentration was determined by the standard curve (concentration vs. peak area) made with the same extraction procedure of controlled plasma. The area under curve (AUC) was calculated using the modified trapezoidal method. The portion of AUC from the last measurable plasma concentration to infinity was estimated by C/k, where k was expressed by the least square regression of the log-linear concentration time points and C represents the last measurable plasma concentration. Bioavailability was calculated by AUCpo/AUCiv.
Compounds (1) and (3) and its internal standard were extracted from heparinized plasma by protein precipitation with acetonitrile. Chromatography was achieved on an XTerra column (Waters, particle size: 5 μm; 100 mm×3.0 mm i.d.) using a mixture of acetonitrile, water and formic acid. Analysis was performed on a Sciex API 365 tandem mass spectrometer with turbo ion spray interface. Negative ions were measured using the multiple-reaction-monitoring (MRM) mode with m/z 399.0→165.1. The run time was 9 min per sample, and Compounds (1) and (3) were quantitated by a peak area ratio using 1/×^2-weighted least-square linear regression plot.

The mark [3] stands for this setting: water, shaken and sonicated about 5-10 min at about 50° C., filtered 0.2 μm, HPLC, read-out: Solubility in water.
The mark [4] stands for this setting: water, shaken and sonicated about 5-10 min at about 50° C., filtered 0.2 μm, HPLC.

Where two headings read alike, the source gives them in different places. Where only a bound is given, the exact number is not on record here.

Regarding `CN(/N=C(\[O-])CC(=O)NN(C)C(=S)c1ccccc1)C(=S)c1ccccc1.[Na+]` [Compound 3, Sodium; 2-(N′-methyl-N′-thiobenzoyl-hydrazinocarbonyl)-1-(methyl-thiobenzoyl-hydrazono)-ethanolate], the solubility in data set [1] (setting [3]) was 52.8 mg/mL. The bioavailability in data set [2] (dog, plasma, male beagle dogs, capsule oral vs intravenous solution, AUCpo/AUCiv, read-out: Bioavailability) came to 35%.
In the case of `CN(/N=C(\[O-])CC(=O)NN(C)C(=S)c1ccccc1)C(=S)c1ccccc1.[K+]` [Compound 10, Monopotassium; 2-(N′-methyl-N′-thiobenzoyl-hydrazinocarbonyl)-1-(methyl-thiobenzoyl-hydrazono)-ethanolate], the solubility in data set [1] (setting [3]) is 41.2 mg/mL.
In the case of `CN(NC(=O)CC(=O)NN(C)C(=S)c1ccccc1)C(=S)c1ccccc1` [Neutral Form of Compound 1, N-Malonyl-bis(N′-thiobenzoyl-N′-methyl hydrazide)], in data set [1] (water, listed as neutral form of Compounds (1) and (2)), the water solubility result is “about 0.1 mg/ml”. Besides, the Solubility in water in data set [1] (setting [4]) is recorded as less than 0.1 mg/mL. Also, the bioavailability in data set [2] (male beagle dogs, capsule oral vs intravenous solution, AUCpo/AUCiv) amounted to 4.8%; in data set [2] (see Example 16 (dog)), 4.8%.
For `CN(/N=C(\[O-])C/C([O-])=N/N(C)C(=S)c1ccccc1)C(=S)c1ccccc1.[Mg+2]` [Compound 8, Magnesium; 2-(N′-methyl-N′-thiobenzoyl-hydrazinocarbonyl)-1-(methyl-thiobenzoyl-hydrazono)-ethanolate], the solubility in data set [1] (setting [3]) was determined as 43.5 mg/mL.
Regarding `CN(/N=C(\[O-])C/C([O-])=N/N(C)C(=S)C1(C)CC1)C(=S)C1(C)CC1.[Na+].[Na+]` [Compound 12, Disodium; 2-(N′-methyl-N′-thio-1-methylcyclopropyl-hydrazinocarbonyl)-1-(methyl-thio-1-methylcyclopropyl-hydrazono)-ethanolate], the “water solubility compared with the corresponding neutral or monosalt compounds” value in data set [1] is reported as “significantly greater water solubility”. Besides, in data set [1] (setting [3]), the solubility was more than 1000 mg/mL.
For `CN(/N=C(\[O-])C/C([O-])=N/N(C)C(=S)c1ccccc1)C(=S)c1ccccc1.[Li+].[Li+]` [Compound 5, Dilithium; 2-(N′-methyl-N′-thiobenzoyl-hydrazinocarbonyl)-1-(methyl-thiobenzoyl-hydrazono)-ethanolate] the same measures were “significantly greater water solubility” and 626 mg/mL.
For `CN(/N=C(\[O-])C/C([O-])=N/N(C)C(=S)C1(C)CC1)C(=S)C1(C)CC1.[K+].[K+]` [Compound 14, Dipotassium; 2-(N′-methyl-N′-thio-1-methylcyclopropyl-hydrazinocarbonyl)-1-(methyl-thio-1-methylcyclopropyl-hydrazono)-ethano late] the same measures were “significantly greater water solubility” and more than 1000 mg/mL.
Take `CN(/N=C(\[O-])CC(=O)NN(C)C(=S)c1ccccc1)C(=S)c1ccccc1.[Li+]` [Compound 4, Lithium; 2-(N′-methyl-N′-thiobenzoyl-hydrazinocarbonyl)-1-(methyl-thiobenzoyl-hydrazono)-ethanolate]: the solubility in data set [1] (setting [3]) was 53.5 mg/mL.
Consider `CN(/N=C(\[O-])C/C([O-])=N/N(C)C(=S)C1CC1)C(=S)C1CC1.[Na+].[Na+]` [Compound 13, Disodium; 2-(N′-methyl-N′-thiocyclopropyl-hydrazinocarbonyl)-1-(methyl-thiocyclopropyl-hydrazono)-ethanolate], for which the “water solubility compared with the corresponding neutral or monosalt compounds” value in data set [1] is reported as “significantly greater water solubility”. Moreover, in data set [1] (setting [3]), the solubility is more than 1000 mg/mL.
Consider `CN(NC(=O)CC(=O)NN(C)C(=S)c1ccccc1)C(=S)c1ccccc1` [Compound 1, Disodium; 2-(N′-methyl-N′-thiobenzoyl-hydrazinocarbonyl)-1-(methyl-thiobenzoyl-hydrazono)-ethanolate], for which the solubility in data set [1] (50 °C, water, read-out: water solubility) is more than 1000 mg/mL. Besides, the “water solubility compared with the corresponding neutral or monosalt compounds” value in data set [1] is “significantly greater water solubility”. Also, in data set [1] (setting [4]), the Solubility in water is reported as more than 1000 mg/mL. Moreover, the bioavailability in data set [2] (male, beagle, plasma, oral, see Example 16 (dog), read-out: bioavailability) came to 80%.
Consider “Cholin; 2-(N′-methyl-N′-thiobenzoyl-hydrazinocarbonyl)-1-(methyl-thiobenzoyl-hydrazono)-ethanolate [Compound 11]”, for which the Solubility in water in data set [1] (setting [4]) is reported as 264.0 (>200) mg/mL.

One may read the solubility as the dissolved amount per volume that the medium holds. In general, bioavailability refers to dose-corrected exposure relative to a reference, in per cent.
